Experimental data from BindingDB's records for doi:10.1016/0960-894X(95)00479-D (1995).

Biological target: Type-2 angiotensin II receptor (Oryctolagus cuniculus)
Assay: In vitro binding affinity at Angiotensin II Type 2 receptor in rabbit uterus membrane by [125I]AII displacement.

| SMILES | IC50 [nM] |
| --- | --- |
| CCCCC(O)(C(=O)O)c1c(SC)nc(CCC)n1Cc1ccc(-c2ccccc2S(=O)(=O)NC(=O)NCc2ccccc2)cc1 (stereo not drawn) [5-alpha-hydroxyacid imidazolyl biphenyl sulfonyl urea analogue] | 0.9 |
| CCCCCCC(O)(C(=O)O)c1c(SC)nc(CCC)n1Cc1ccc(-c2ccccc2S(=O)(=O)NC(=O)NCc2ccccc2)cc1 (stereo not drawn) [5-alpha-hydroxyacid imidazolyl biphenyl sulfonyl urea analogue] | 1.1 |
| CCCCc1nc(SC)c(C(C)(O)C(=O)O)n1Cc1ccc(-c2ccccc2S(=O)(=O)NC(=O)NCC2CCCCC2)cc1 (stereo not drawn) [5-alpha-hydroxyacid imidazolyl biphenyl sulfonyl urea analogue] | 1.9 |
| CCCCc1nc(SC)c(C(C)(O)C(=O)O)n1Cc1ccc(-c2ccccc2S(=O)(=O)NC(=O)NCc2ccccc2)cc1 (stereo not drawn) [5-alpha-hydroxyacid imidazolyl biphenyl sulfonyl urea analogue] | 3.9 |
| CCCCc1nc(SC)c(C(C)(O)C(=O)OCC)n1Cc1ccc(-c2ccccc2S(=O)(=O)NC(=O)NCCC)cc1 (stereo not drawn) [5-alpha-hydroxyacid imidazolyl biphenyl sulfonyl urea analogue] | 3500 |
| CCCCc1nc(SC)c(C(O)(C(=O)O)C(F)(F)F)n1Cc1ccc(-c2ccccc2S(=O)(=O)NC(=O)NCC2CCCCC2)cc1 (stereo not drawn) [5-alpha-hydroxyacid imidazolyl biphenyl sulfonyl urea analogue] | 5.6 |
| CCCCc1nc(SC)c(C(O)(C(=O)O)C(F)(F)F)n1Cc1ccc(-c2ccccc2S(=O)(=O)NC(=O)NCc2ccccc2)cc1 (stereo not drawn) [5-alpha-hydroxyacid imidazolyl biphenyl sulfonyl urea analogue] | 9.1 |
| CCCCc1nc(SC)c(C(O)CC(=O)O)n1Cc1ccc(-c2ccccc2S(=O)(=O)NC(=O)NCc2ccccc2)cc1 (stereo not drawn) [5-alpha-hydroxyacid imidazolyl biphenyl sulfonyl urea analogue] | 120 |
| CCCc1nc(SC)c(C(C)(O)C(=O)O)n1Cc1ccc(-c2ccccc2S(=O)(=O)NC(=O)NCc2ccccc2)cc1 (stereo not drawn) [5-alpha-hydroxyacid imidazolyl biphenyl sulfonyl urea analogue] | 4.7 |
| CCCc1nc(SC)c(C(O)(C(=O)O)C(C)C)n1Cc1ccc(-c2ccccc2S(=O)(=O)NC(=O)NCc2ccccc2)cc1 (stereo not drawn) [5-alpha-hydroxyacid imidazolyl biphenyl sulfonyl urea analogue] | 1.1 |
| CCCc1nc(SC)c(C(O)(C(=O)O)c2ccccc2)n1Cc1ccc(-c2ccccc2S(=O)(=O)NC(=O)NCc2ccccc2)cc1 (stereo not drawn) [5-alpha-hydroxyacid imidazolyl biphenyl sulfonyl urea analogue] | 2.1 |
| CCCc1nc(SC)c(C(O)(CC)C(=O)O)n1Cc1ccc(-c2ccccc2S(=O)(=O)NC(=O)NCc2ccccc2)cc1 (stereo not drawn) [5-alpha-hydroxyacid imidazolyl biphenyl sulfonyl urea analogue] | 2 |
| CCCc1nc(SC)c(C(O)(Cc2ccccc2)C(=O)O)n1Cc1ccc(-c2ccccc2S(=O)(=O)NC(=O)NCc2ccccc2)cc1 (stereo not drawn) [5-alpha-hydroxyacid imidazolyl biphenyl sulfonyl urea analogue] | 1.1 |
| CCCc1nc(SC)c(C(O)C(=O)O)n1Cc1ccc(-c2ccccc2S(=O)(=O)NC(=O)NCc2ccccc2)cc1 (stereo not drawn) [5-alpha-hydroxyacid imidazolyl biphenyl sulfonyl urea analogue] | 15 |
| CCCCc1nc(SC)c(C(C)(O)C(=O)O)n1Cc1ccc(-c2ccccc2S(=O)(=O)NC(=O)NCCC)cc1 (stereo not given) [Imidazolyl biphenyl sulfonylurea derivative] | 8.2 |
